From ChEMBL document CHEMBL1201862, “PubChem BioAssay data set” (2004)
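Compound exposure: 48 hours, 5 concentrations, 96-well plates. GI50 = concentration required for 50% inhibition of growth.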 Activity calls are given as the source filed them. No stated cut-off is given here; in the data, active = GI50 up to about 1.1 µM and inactive = higher.

Columns and labels:
Test in all cases: inhibition of tumour cell growth, NCI panel, 48 h
HCT-15 = test system: HCT-15
NCI/ADR-RES = test system: NCI/ADR-RES
UACC-62 = test system: UACC-62
DU-145 = test system: DU-145
A549 = test system: A549
UO-31 = test system: UO-31
MDA-MB-435 = test system: MDA-MB-435
SR = test system: SR
SF-295 = test system: SF-295
RPMI-8226 = test system: RPMI-8226
HOP-62 = test system: HOP-62
BT-549 = test system: BT-549
OVCAR-8 = test system: OVCAR-8
LOX IMVI = test system: LOX IMVI
MCF7 = test system: MCF7
HOP-92 = test system: HOP-92
CAKI-1 = test system: CAKI-1
SF-539 = test system: SF-539
RXF 393 = test system: RXF 393
NCI-H522 = test system: NCI-H522

| Compound | GI50 (HCT-15) [µM] | GI50 (NCI/ADR-RES) | GI50 (UACC-62) | GI50 (DU-145) | GI50 (A549) | GI50 (UO-31) | GI50 (MDA-MB-435) | GI50 (SR) | GI50 (SF-295) | GI50 (RPMI-8226) | GI50 (HOP-62) | GI50 (BT-549) | GI50 (OVCAR-8) | GI50 (LOX IMVI) | GI50 (MCF7) | GI50 (HOP-92) | GI50 (CAKI-1) | GI50 (SF-539) | GI50 (RXF 393) | GI50 (NCI-H522) |
| --- | --- | --- | --- | --- | --- | --- | --- | --- | --- | --- | --- | --- | --- | --- | --- | --- | --- | --- | --- | --- |
| Cc1ccc(N2C(=O)C(O)=C(C(=O)C(C)(C)C)C2c2ccc([N+](=O)[O-])cc2)cc1 (centres undefined) | 16.2 | 19.5 µM (inactive) | 14.9 µM (inactive) | 28.4 µM (inactive) | 23.6 µM (inactive) | 29.6 µM (inactive) | 17.4 µM (inactive) | 7.53 µM (inactive) | 20.9 µM (inactive) | 10.9 µM (inactive) | 17.3 µM (inactive) | 11.1 µM (inactive) | 18.9 µM (inactive) | 14.9 µM (inactive) | 17.7 µM (inactive) | 13.7 µM (inactive) | 3.94 µM (inactive) | 24.9 µM (inactive) | – | – |
| COc1ccc(/C=C2/S/C(=N\c3ccccc3)N(NC(=O)Cc3ccccc3)C2=O)cc1 | > 100 | > 100 µM (inactive) | > 100 µM (inactive) | > 100 µM (inactive) | > 100 µM (inactive) | 92.3 µM (inactive) | > 100 µM (inactive) | – | > 100 µM (inactive) | > 100 µM (inactive) | > 100 µM (inactive) | > 100 µM (inactive) | > 100 µM (inactive) | – | > 100 µM (inactive) | > 100 µM (inactive) | – | > 100 µM (inactive) | > 100 µM (inactive) | – |
| CC(=O)C1=C(C)O[C@@H]2O[C@H](COCc3ccccc3)[C@@H](OCc3ccccc3)[C@H](O)[C@@H]2S1 | 21.3 | 16.3 µM (inactive) | 15.5 µM (inactive) | 20.8 µM (inactive) | 27.8 µM (inactive) | 22 µM (inactive) | 19 µM (inactive) | 22 µM (inactive) | 13.8 µM (inactive) | 17.2 µM (inactive) | 19.5 µM (inactive) | 21.8 µM (inactive) | 23 µM (inactive) | 21 µM (inactive) | – | 22.9 µM (inactive) | 49.3 µM (inactive) | 20 µM (inactive) | 13.8 µM (inactive) | 15 µM (inactive) |
| CCC(=O)Nc1ccc(/N=N/N(C)C)cc1 | > 100 | > 100 µM (inactive) | > 100 µM (inactive) | > 100 µM (inactive) | > 100 µM (inactive) | > 100 µM (inactive) | > 100 µM (inactive) | – | – | – | > 100 µM (inactive) | > 100 µM (inactive) | > 100 µM (inactive) | 50.9 µM (inactive) | > 100 µM (inactive) | 12.4 µM (inactive) | – | > 100 µM (inactive) | > 100 µM (inactive) | 14.4 µM (inactive) |
| Cn1cnc([N+](=O)[O-])c1Sc1nc(N)nc2c1ncn2C1OC(CO)C(O)C1O (centres undefined) | 6.84 | 0.182 µM (active) | 2.53 µM (inactive) | 2.36 µM (inactive) | 11 µM (inactive) | 5.12 µM (inactive) | 1.5 µM (inactive) | 1.53 µM (inactive) | 3.46 µM (inactive) | 2.98 µM (inactive) | 1.44 µM (inactive) | 8.41 µM (inactive) | 2.51 µM (inactive) | 1.09 µM (active) | – | 1.33 µM (inactive) | 6.19 µM (inactive) | 2.9 µM (inactive) | 3.78 µM (inactive) | 9.38 µM (inactive) |
| CC(C)C(=O)Oc1cc2c(=O)oc3c(OC(=O)C(C)C)c(OC(=O)C(C)C)cc4c(=O)oc(c1OC(=O)C(C)C)c2c34 | > 100 | > 100 µM (inactive) | > 100 µM (inactive) | > 100 µM (inactive) | > 100 µM (inactive) | > 100 µM (inactive) | > 100 µM (inactive) | – | > 100 µM (inactive) | > 100 µM (inactive) | > 100 µM (inactive) | > 100 µM (inactive) | > 100 µM (inactive) | > 100 µM (inactive) | > 100 µM (inactive) | > 100 µM (inactive) | > 100 µM (inactive) | > 100 µM (inactive) | > 100 µM (inactive) | > 100 µM (inactive) |
| CCOC(=O)CO/N=C\C1=CC(=O)C2CC1C2(C)C (centres undefined) | > 100 | > 100 µM (inactive) | > 100 µM (inactive) | > 100 µM (inactive) | – | > 100 µM (inactive) | > 100 µM (inactive) | – | > 100 µM (inactive) | > 100 µM (inactive) | – | > 100 µM (inactive) | > 100 µM (inactive) | > 100 µM (inactive) | > 100 µM (inactive) | – | > 100 µM (inactive) | > 100 µM (inactive) | > 100 µM (inactive) | – |
| Clc1ccc(-c2ccc(-c3nn4c(CNc5ccccc5)nnc4s3)o2)c(Cl)c1 | 48.1 | 81.7 µM (inactive) | – | > 100 µM (inactive) | 72.3 µM (inactive) | > 100 µM (inactive) | 58.1 µM (inactive) | 27.5 µM (inactive) | 60.1 µM (inactive) | 36.6 µM (inactive) | > 100 µM (inactive) | > 100 µM (inactive) | 68.7 µM (inactive) | > 100 µM (inactive) | – | 29.2 µM (inactive) | > 100 µM (inactive) | 22.5 µM (inactive) | 33.5 µM (inactive) | 57.8 µM (inactive) |
| O=C(O)C1CC(c2ccccc2)=NN1c1ccccc1 (centres undefined) | 34 | 48.5 µM (inactive) | > 100 µM (inactive) | 96.8 µM (inactive) | 70 µM (inactive) | 39.9 µM (inactive) | 63.4 µM (inactive) | – | 64.6 µM (inactive) | 40.3 µM (inactive) | > 100 µM (inactive) | 66.5 µM (inactive) | > 100 µM (inactive) | 41.9 µM (inactive) | 48 µM (inactive) | 69.3 µM (inactive) | 43.6 µM (inactive) | 93.5 µM (inactive) | 87.1 µM (inactive) | 27.4 µM (inactive) |
| O=C1C=C(N2CCCC2)C(=O)c2c(O)ccc(O)c21 | > 10 | – | 7.28 µM (inactive) | > 10 µM (inactive) | > 10 µM (inactive) | > 10 µM (inactive) | – | – | > 10 µM (inactive) | – | > 10 µM (inactive) | > 10 µM (inactive) | > 10 µM (inactive) | > 10 µM (inactive) | 9.57 µM (inactive) | > 10 µM (inactive) | – | > 10 µM (inactive) | > 10 µM (inactive) | – |
| COc1ccc(S(=O)(=O)O)cc1NS(=O)(=O)c1ccc(C)cc1 | > 100 | > 100 µM (inactive) | > 100 µM (inactive) | > 100 µM (inactive) | > 100 µM (inactive) | > 100 µM (inactive) | > 100 µM (inactive) | > 100 µM (inactive) | > 100 µM (inactive) | > 100 µM (inactive) | > 100 µM (inactive) | > 100 µM (inactive) | > 100 µM (inactive) | > 100 µM (inactive) | > 100 µM (inactive) | – | > 100 µM (inactive) | > 100 µM (inactive) | – | > 100 µM (inactive) |
| COc1ccc2oc(=O)c(CC=C(C)C)c(O)c2c1C | > 100 | > 100 µM (inactive) | > 100 µM (inactive) | > 100 µM (inactive) | > 100 µM (inactive) | > 100 µM (inactive) | > 100 µM (inactive) | > 100 µM (inactive) | > 100 µM (inactive) | > 100 µM (inactive) | > 100 µM (inactive) | > 100 µM (inactive) | > 100 µM (inactive) | > 100 µM (inactive) | > 100 µM (inactive) | – | > 100 µM (inactive) | > 100 µM (inactive) | – | > 100 µM (inactive) |
